Laboratory results from paper PMC3738524, “Bioenergetic and Antiapoptotic Properties of Mitochondria from Cultured Human Prostate Cancer Cell Lines PC-3, DU145 and LNCaP” (PLoS ONE, 2013).
Like-named read-outs stand apart in the source and are kept apart here.

Target: T1, Complex I (NADH dehydrogenase) (Homo sapiens, UniProt P49821)
T1 construct: gene NDUFV1
Conditions: optimal decylubiquinone as acceptor, 30 °C, '+' printed for ±

T1 sequence (P19404 33-249): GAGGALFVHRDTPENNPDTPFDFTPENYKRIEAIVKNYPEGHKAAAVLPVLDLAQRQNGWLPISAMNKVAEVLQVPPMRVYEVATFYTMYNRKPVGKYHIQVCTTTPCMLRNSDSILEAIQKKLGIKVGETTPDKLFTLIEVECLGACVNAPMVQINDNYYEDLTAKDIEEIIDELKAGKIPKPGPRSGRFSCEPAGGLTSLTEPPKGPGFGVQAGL
T1 sequence (P28331 24-727, further chain): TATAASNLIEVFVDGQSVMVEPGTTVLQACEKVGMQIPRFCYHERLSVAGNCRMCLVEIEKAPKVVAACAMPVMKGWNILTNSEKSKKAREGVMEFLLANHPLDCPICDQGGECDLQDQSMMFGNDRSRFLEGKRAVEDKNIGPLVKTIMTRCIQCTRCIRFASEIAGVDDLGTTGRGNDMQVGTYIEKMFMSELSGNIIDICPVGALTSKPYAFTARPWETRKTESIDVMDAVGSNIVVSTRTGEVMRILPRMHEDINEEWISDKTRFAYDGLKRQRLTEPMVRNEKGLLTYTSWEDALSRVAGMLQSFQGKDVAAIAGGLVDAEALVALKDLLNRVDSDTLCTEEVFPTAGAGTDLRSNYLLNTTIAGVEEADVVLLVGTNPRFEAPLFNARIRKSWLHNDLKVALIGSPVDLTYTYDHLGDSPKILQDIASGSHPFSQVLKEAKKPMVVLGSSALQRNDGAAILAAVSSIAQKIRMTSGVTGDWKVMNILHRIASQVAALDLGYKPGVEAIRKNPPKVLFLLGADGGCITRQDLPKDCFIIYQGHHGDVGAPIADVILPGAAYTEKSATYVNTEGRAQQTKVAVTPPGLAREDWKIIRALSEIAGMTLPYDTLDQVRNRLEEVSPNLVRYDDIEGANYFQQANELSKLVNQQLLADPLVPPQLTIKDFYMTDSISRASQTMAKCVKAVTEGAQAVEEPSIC
T1 sequence (P49821 21-464): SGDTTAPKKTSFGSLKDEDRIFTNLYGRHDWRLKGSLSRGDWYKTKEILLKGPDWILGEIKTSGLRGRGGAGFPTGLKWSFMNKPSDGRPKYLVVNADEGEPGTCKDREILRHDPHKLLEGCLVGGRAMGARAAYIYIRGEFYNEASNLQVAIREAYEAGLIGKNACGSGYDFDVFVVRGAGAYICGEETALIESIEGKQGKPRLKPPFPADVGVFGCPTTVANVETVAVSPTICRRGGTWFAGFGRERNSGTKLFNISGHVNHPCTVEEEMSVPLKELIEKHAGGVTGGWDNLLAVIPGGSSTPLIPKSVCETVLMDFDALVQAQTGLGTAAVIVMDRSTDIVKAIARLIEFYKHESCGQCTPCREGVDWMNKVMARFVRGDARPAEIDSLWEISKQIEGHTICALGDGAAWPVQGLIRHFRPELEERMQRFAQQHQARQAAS

Structure (SMILES): NC(=O)C1=CN([C@@H]2O[C@H](COP(=O)(O)OP(=O)(O)OC[C@H]3O[C@@H](n4cnc5c(N)ncnc54)[C@H](O)[C@@H]3O)[C@@H](O)[C@H]2O)C=CC1 [NADH]
- KM^NADH (EBV-transformed normal lymphoblastoid HLB cells): 1.8+0.1 µM
- KM^NADH (fibrosarcoma HT1080C cells): 5+2 µM
- KM^NADH (normal prostate epithelial PrEC cells): 4+0.5 µM
- KM^NADH (prostate cancer cells PC-3, DU145 and LNCaP (one common value printed)): 20+2.5 µM
